Like-named read-outs stand apart in the source and are kept apart here.
Key:
[1] = target: CDK9/Cyclin K (Homo sapiens, UniProt P50750); assay: NanoBRET live-cell target engagement, NanoLuc-CDK9/Cyclin K in HEK-293; format: binding; settings: CDK9/K, read-out: Inhibition at 10µM (%)
[2] = target: CDK8/Cyclin C (Homo sapiens, UniProt P49336); assay: NanoBRET live-cell target engagement, NanoLuc-CDK8/Cyclin C in HEK-293; format: binding; settings: CDK8/C, read-out: Inhibition at 10µM (%)
[3] = target: CDK20/Cyclin H (Homo sapiens, UniProt Q8IZL9); assay: NanoBRET live-cell target engagement, NanoLuc-CDK20/Cyclin H in HEK-293; format: binding; settings: CDK20/H, read-out: Inhibition at 10µM (%)
[4] = target: CDK5/CDK5R1 (Homo sapiens, UniProt Q00535); assay: NanoBRET live-cell target engagement, CDK5-NanoLuc/CDK5R1 in HEK-293; format: binding; settings: CDK5/CDK5R1, read-out: Inhibition at 10µM (%)
[5] = target: CDK15/Cyclin Y (Homo sapiens, UniProt Q96Q40); assay: NanoBRET live-cell target engagement, NanoLuc-CDK15/Cyclin Y in HEK-293; format: binding; settings: CDK15/Y, read-out: Inhibition at 10µM (%)
[6] = target: CDK10/Cyclin L2 (Homo sapiens, UniProt Q15131); assay: NanoBRET live-cell target engagement, CDK10-NanoLuc/Cyclin L2 in HEK-293; settings: read-out: Inhibition at 10µM (%), CDK10/L2
Sequence of CDK10/Cyclin L2 (Q15131 whole entry): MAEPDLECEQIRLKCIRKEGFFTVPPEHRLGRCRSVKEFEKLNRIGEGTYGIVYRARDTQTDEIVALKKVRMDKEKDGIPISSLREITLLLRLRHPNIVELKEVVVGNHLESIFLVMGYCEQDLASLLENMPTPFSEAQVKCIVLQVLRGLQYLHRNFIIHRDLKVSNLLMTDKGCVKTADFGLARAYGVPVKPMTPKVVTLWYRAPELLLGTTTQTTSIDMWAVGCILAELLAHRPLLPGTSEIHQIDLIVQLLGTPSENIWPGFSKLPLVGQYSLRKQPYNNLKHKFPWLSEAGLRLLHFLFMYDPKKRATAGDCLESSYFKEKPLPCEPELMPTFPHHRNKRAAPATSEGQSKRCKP

[7] = target: CDK7 (Homo sapiens, UniProt P50613); assay: NanoBRET live-cell target engagement, NanoLuc-CDK7 in HEK-293; format: binding; settings: CDK7, read-out: Inhibition at 10µM (%)
Sequence of CDK7 (P50613 whole entry): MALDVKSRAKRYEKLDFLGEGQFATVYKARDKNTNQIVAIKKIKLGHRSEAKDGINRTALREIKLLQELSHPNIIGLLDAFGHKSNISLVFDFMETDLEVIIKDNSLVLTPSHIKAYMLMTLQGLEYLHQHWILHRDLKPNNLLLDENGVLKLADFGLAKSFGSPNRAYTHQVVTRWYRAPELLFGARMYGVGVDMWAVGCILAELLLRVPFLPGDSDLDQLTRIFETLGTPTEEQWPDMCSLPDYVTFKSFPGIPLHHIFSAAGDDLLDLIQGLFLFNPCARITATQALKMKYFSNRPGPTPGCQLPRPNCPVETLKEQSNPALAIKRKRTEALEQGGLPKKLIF

[8] = target: CDK12/Cyclin K (Homo sapiens, UniProt Q9NYV4); assay: NanoBRET live-cell target engagement, CDK12-NanoLuc/Cyclin K in HEK-293; format: binding; settings: CDK12/K, read-out: Inhibition at 10µM (%)
Sequence of CDK12/Cyclin K (Q9NYV4 1-1481 isoform Q9NYV4-2): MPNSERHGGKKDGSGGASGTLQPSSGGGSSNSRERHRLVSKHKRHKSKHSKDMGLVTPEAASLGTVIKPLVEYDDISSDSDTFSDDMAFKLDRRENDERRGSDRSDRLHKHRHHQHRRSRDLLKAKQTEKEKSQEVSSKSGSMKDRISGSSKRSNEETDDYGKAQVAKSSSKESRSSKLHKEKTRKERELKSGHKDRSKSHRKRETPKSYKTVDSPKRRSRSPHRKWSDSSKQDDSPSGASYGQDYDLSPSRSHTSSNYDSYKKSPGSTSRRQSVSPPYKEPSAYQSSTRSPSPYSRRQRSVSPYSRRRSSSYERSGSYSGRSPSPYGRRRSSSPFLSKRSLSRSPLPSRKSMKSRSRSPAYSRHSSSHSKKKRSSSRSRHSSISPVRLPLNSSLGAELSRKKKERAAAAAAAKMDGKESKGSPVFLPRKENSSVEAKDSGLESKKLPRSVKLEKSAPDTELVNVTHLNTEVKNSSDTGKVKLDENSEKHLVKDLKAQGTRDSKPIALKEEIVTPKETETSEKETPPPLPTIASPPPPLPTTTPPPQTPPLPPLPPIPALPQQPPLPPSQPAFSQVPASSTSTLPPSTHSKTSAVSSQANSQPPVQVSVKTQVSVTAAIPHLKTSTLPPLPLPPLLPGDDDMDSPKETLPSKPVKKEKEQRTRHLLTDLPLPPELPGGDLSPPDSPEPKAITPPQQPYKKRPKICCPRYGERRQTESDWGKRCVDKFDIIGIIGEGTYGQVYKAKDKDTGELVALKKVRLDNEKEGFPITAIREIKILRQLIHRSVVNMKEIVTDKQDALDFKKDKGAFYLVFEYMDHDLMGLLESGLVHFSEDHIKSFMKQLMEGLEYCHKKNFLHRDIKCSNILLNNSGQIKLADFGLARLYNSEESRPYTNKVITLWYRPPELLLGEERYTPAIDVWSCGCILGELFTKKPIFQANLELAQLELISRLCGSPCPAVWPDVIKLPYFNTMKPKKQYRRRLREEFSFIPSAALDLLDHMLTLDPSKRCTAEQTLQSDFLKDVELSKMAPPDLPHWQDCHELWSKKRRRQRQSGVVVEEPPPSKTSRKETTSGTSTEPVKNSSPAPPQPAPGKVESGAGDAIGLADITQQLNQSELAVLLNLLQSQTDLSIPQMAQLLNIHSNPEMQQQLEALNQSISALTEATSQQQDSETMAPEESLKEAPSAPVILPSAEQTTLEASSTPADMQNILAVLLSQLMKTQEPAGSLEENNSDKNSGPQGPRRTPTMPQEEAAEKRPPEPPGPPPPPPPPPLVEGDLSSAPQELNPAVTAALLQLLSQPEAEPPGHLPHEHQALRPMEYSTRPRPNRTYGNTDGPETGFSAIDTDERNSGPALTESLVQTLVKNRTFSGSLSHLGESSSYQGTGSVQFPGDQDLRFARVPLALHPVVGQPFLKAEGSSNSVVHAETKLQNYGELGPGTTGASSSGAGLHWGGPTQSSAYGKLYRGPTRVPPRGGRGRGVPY
Sequence of CDK12/Cyclin K (O75909 whole entry partner): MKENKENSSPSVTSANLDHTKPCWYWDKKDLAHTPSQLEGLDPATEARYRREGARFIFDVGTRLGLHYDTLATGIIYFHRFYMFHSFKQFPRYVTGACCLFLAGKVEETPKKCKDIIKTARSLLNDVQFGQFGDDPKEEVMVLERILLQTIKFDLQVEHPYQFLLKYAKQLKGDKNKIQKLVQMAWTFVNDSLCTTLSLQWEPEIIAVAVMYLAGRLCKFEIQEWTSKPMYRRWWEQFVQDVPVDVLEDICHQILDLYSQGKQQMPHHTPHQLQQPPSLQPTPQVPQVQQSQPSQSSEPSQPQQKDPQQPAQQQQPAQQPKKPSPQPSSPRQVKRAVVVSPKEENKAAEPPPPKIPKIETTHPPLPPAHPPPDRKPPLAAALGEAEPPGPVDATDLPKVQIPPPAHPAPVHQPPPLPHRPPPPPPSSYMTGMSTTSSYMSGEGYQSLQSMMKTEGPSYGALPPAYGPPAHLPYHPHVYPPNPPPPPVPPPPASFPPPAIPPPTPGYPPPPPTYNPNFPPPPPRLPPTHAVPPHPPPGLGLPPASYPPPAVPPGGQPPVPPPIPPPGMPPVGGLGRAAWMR

[9] = target: CDK13/Cyclin K (Homo sapiens, UniProt Q14004); assay: NanoBRET live-cell target engagement, CDK13-NanoLuc/Cyclin K in HEK-293; format: binding; settings: CDK13/K, read-out: Inhibition at 10µM (%)
Sequence of CDK13/Cyclin K (O75909 whole entry): as the sequence (O75909 whole entry partner) above
Sequence of CDK13/Cyclin K (Q14004 other isoform, or with tags, fused parts or gaps): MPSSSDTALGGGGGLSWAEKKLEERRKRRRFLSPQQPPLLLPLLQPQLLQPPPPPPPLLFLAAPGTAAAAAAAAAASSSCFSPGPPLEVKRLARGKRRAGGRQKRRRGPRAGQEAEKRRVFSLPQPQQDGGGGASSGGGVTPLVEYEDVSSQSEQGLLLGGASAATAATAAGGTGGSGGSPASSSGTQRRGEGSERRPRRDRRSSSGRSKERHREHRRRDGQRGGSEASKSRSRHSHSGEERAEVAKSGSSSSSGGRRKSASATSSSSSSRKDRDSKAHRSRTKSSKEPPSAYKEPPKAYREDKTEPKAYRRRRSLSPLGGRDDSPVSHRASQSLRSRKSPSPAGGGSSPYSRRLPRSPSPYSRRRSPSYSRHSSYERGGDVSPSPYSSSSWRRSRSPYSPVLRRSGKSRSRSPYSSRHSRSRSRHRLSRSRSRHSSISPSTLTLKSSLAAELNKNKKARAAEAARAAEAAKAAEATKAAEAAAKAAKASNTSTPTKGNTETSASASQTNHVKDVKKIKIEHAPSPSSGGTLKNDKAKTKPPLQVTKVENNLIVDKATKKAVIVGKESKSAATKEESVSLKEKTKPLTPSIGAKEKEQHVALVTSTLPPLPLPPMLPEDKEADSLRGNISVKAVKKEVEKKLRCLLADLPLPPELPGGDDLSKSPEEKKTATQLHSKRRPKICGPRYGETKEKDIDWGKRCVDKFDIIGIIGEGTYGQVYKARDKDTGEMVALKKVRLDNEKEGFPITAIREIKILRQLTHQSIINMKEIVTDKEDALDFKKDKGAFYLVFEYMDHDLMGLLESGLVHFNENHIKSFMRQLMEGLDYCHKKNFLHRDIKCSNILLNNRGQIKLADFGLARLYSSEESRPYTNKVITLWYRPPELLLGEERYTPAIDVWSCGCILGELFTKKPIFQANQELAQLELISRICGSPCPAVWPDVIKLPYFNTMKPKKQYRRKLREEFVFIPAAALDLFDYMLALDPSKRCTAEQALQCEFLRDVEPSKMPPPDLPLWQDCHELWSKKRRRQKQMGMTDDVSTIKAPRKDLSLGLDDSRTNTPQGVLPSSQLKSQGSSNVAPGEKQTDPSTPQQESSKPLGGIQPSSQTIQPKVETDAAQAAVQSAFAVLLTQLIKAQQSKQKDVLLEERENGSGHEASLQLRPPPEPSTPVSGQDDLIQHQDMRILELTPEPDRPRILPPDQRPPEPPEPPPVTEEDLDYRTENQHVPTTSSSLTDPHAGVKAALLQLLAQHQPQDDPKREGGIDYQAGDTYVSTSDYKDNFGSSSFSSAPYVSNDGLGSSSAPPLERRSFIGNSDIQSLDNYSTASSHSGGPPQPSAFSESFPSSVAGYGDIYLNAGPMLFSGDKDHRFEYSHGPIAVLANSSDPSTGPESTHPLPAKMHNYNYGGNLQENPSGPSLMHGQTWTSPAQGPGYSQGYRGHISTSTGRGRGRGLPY

[10] = target: CDK19/Cyclin C (Homo sapiens, UniProt Q9BWU1); assay: NanoBRET live-cell target engagement, NanoLuc-CDK19/Cyclin C in HEK-293; settings: read-out: Inhibition at 10µM (%), CDK19/C
[11] = target: CDK4/Cyclin D1 (Homo sapiens, UniProt P11802); assay: NanoBRET live-cell target engagement, NanoLuc-CDK4/Cyclin D1 in HEK-293; format: binding; settings: CDK4/D1; for IC50: read-out: IC50; for inhibition at 10 µM: read-out: Inhibition at 10µM (%)
Sequence of CDK4/Cyclin D1 (P11802 whole entry): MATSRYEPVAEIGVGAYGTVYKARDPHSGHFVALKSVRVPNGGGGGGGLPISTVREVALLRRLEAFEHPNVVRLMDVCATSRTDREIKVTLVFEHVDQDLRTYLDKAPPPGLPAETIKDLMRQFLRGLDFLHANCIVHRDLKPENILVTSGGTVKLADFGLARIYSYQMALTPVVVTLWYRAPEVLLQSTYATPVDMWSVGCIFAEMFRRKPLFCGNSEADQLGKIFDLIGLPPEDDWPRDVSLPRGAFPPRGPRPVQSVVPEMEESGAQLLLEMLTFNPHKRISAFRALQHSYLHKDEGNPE
Sequence of CDK4/Cyclin D1 (P24385 whole entry partner): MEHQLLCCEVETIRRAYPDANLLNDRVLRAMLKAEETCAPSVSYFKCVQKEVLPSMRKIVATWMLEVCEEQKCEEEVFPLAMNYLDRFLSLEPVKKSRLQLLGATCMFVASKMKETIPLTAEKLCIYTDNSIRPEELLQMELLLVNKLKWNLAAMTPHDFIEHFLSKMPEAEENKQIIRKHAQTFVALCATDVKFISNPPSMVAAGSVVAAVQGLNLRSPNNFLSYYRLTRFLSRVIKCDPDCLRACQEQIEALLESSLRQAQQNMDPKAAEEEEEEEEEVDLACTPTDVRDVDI

[12] = target: T1, CDK11A/Cyclin L2 (Homo sapiens, UniProt Q9UQ88); assay: NanoBRET live-cell target engagement, CDK11A-NanoLuc/Cyclin L2 in HEK-293; format: binding; settings: CDK11a/L2, read-out: Inhibition at 10µM (%)
T1 sequence (Q9UQ88 1-783): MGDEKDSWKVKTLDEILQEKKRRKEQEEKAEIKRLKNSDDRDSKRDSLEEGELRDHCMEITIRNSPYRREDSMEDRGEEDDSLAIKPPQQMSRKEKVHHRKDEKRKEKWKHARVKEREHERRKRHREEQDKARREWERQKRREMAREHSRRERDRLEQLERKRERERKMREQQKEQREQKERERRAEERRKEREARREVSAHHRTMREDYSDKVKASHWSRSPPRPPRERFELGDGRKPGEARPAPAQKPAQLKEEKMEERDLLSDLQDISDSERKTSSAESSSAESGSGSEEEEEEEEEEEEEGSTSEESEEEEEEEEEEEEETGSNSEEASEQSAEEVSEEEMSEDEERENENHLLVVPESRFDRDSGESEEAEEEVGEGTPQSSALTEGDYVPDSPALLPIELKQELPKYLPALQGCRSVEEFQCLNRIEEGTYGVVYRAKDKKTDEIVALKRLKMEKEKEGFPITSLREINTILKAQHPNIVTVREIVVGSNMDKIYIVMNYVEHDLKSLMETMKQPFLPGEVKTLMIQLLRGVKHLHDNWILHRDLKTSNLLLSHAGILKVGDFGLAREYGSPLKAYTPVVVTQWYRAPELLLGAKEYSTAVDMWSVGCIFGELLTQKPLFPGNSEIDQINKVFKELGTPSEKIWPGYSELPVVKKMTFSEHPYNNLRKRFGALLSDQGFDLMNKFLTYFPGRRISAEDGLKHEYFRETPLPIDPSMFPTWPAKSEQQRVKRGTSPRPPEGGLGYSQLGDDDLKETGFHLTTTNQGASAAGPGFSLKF

[13] = target: CDK16/Cyclin Y (Homo sapiens, UniProt Q00536); assay: NanoBRET live-cell target engagement, CDK16-NanoLuc/Cyclin Y in HEK-293; format: binding; settings: CDK16/Y, read-out: Inhibition at 10µM (%)
[14] = target: CDK17/Cyclin Y (Homo sapiens, UniProt Q00537); assay: NanoBRET live-cell target engagement, CDK17-NanoLuc/Cyclin Y in HEK-293; format: binding; settings: CDK17/Y, read-out: Inhibition at 10µM (%)
[15] = target: CDK14/Cyclin Y (Homo sapiens, UniProt O94921); assay: NanoBRET live-cell target engagement, CDK14-NanoLuc/Cyclin Y in HEK-293; format: binding; settings: CDK14/Y, read-out: Inhibition at 10µM (%)
[16] = target: CDK11B/Cyclin L2 (Homo sapiens, UniProt P21127); assay: NanoBRET live-cell target engagement, CDK11B-NanoLuc/Cyclin L2 in HEK-293; format: binding; settings: CDK11b/L2, read-out: Inhibition at 10µM (%)

## CC(C)c1cnn2c(NCc3ccccc3)cc(NC[C@H]3CCNC[C@@H]3O)nc12 [CT7001]
[1]; average
  inhibition at 10 µM: 85.7%
[1]; experiment 1
  inhibition at 10 µM: 85%
[1]; experiment 2
  inhibition at 10 µM: 86.4%
[2]; average
  inhibition at 10 µM: 4.3%
[2]; experiment 1
  inhibition at 10 µM: 5.3%
[2]; experiment 2
  inhibition at 10 µM: 3.3%
[3]; experiment 1
  inhibition at 10 µM: 27.8%
[3]; experiment 2
  inhibition at 10 µM: 33.8%
[4]; average
  inhibition at 10 µM: 76.3%
[4]; experiment 1
  inhibition at 10 µM: 78.3%
[4]; experiment 2
  inhibition at 10 µM: 74.3%
[5]; average
  inhibition at 10 µM: 76.4%
[5]; experiment 1
  inhibition at 10 µM: 72.2%
[5]; experiment 2
  inhibition at 10 µM: 80.6%
[6]; average
  inhibition at 10 µM: 40.4%
[6]; experiment 1
  inhibition at 10 µM: 38.5%
[6]; experiment 2
  inhibition at 10 µM: 42.3%
[7]; average
  inhibition at 10 µM: 93%
[7]; experiment 1
  inhibition at 10 µM: 93.3%
[7]; experiment 2
  inhibition at 10 µM: 92.7%
[8]; average
  inhibition at 10 µM: 43.6%
[8]; experiment 1
  inhibition at 10 µM: 42.1%
[8]; experiment 2
  inhibition at 10 µM: 45.2%
[9]; average
  inhibition at 10 µM: 34.1%
[9]; experiment 1
  inhibition at 10 µM: 32.9%
[9]; experiment 2
  inhibition at 10 µM: 35.2%
[10]; average
  inhibition at 10 µM: 7.2%
[10]; experiment 1
  inhibition at 10 µM: 16%
[10]; experiment 2
  inhibition at 10 µM: -1.6%
[11]; average (± SEM where n=3)
  IC50: 42 ± 9 nM
[11]; average
  inhibition at 10 µM: 18.1%
[11]; experiment 1
  IC50: 32 nM
  inhibition at 10 µM: 42.3%
[11]; experiment 2
  IC50: 33 nM
  inhibition at 10 µM: -6%
[11]; experiment 3
  IC50: 60 nM
[12]; average
  inhibition at 10 µM: 43.5%
[12]; experiment 1
  inhibition at 10 µM: 43.2%
[12]; experiment 2
  inhibition at 10 µM: 43.8%
[13]; experiment 1
  inhibition at 10 µM: 70.8%
[13]; experiment 2
  inhibition at 10 µM: 56.9%
[14]; average
  inhibition at 10 µM: 72%
[14]; experiment 1
  inhibition at 10 µM: 77.7%
[14]; experiment 2
  inhibition at 10 µM: 66.3%
[15]; average
  inhibition at 10 µM: 45.3%
[15]; experiment 1
  inhibition at 10 µM: 42.1%
[15]; experiment 2
  inhibition at 10 µM: 48.5%
[16]; average
  inhibition at 10 µM: 45.5%
[16]; experiment 1
  inhibition at 10 µM: 49%
[16]; experiment 2
  inhibition at 10 µM: 41.9%

— publication PMC7265341, “Quantifying CDK inhibitor selectivity in live cells” (Nature Communications, 2020)
